Data as given in patent publication US20260077055A1, “COMPOSITIONS OF POLYPLEXES AND SAPONINS” (SAPREME TECHNOLOGIES B.V., priority 2022, published 2026).
Where a SMILES comes first, the peptide text is derived from it. [ ]: non-standard residue; d: D form. Lys(N3) = [N-]=[N+]=NCCCC[C@H](N)C(=O)O

What was measured:
intrinsic pathway = experiment: Activated partial thromboplastin time in fresh whole blood; details: 0.1 μM; reference 26-40 s
Description: (§1) As a next step, the erythrocyte aggregation propensity of the scaffolds was examined under an optical microscope to visualize possible interactions of the scaffolds and polyplexes with RBCs and their surface (FIG. 24C). […] Next, the impact on haemostasis was investigated. […] Consequently, to investigate the impact of the PAMAM- and peptide-based scaffolds on the patient's blood coagulation, these two parameters were measured in fresh whole blood after incubation of nanoparticles at different concentrations (0 nM-5 μM).

EGFR+ A431 cells = experiment: Cell viability (MTS) after polyplex transfection of A431 cells; format: cell-based; details: for cell killing activity / saporin gene delivery, K16C npSaporin polyplexes: K16C alone up to about 5000 μM of plasmids (printed), SO1861-EMCH = free, co-administered with K16C-polyplexes
Description: Spectrophotometry: Concentrations were determined using either a Thermo Nanodrop 2000 spectrometer or Perkin Elmer Lambda 365 Spectrophotometer. DLS measurements: DLS measurements were performed on a Malvern Nano ZS (Malvern Instruments, U.K.), operating at 633 nm with a 173° scattering angle, at 25 or 37° C. DLS mean diameters were obtained from the intensity particle size distribution provided by Malvern Zetasizer Software. DLS histograms were obtained from the intensity particle size distributions. Zeta-potential: The zeta-potential values of the polyplexes were obtained by laser doppler anemometry (LDA), measuring the mean electrophoretic mobility (Malvern Zetasizer Nano ZS, Malvern Instruments, U.K.). Measurements were performed in 10 mM HEPES pH 7.1, 150 mM NaCl. TEM measurements: TEM measurements were performed on a JEOL JEM-1011 operated at 100 kV electron microscope, equipped with a camera S5 MegaView G2. A drop of a solution of polyplexes (0.1 mg/mL) was settled on a PELCO® TEM carbon type-B film copper grid and allowed to dry at room temperature for 1 h. Infrared Spectroscopy: FT-IR spectra were recorded on a Bruker Vertex 70v, equipped with a RockSolid interferometer, after preparing the samples (1-2 mg) as KBr pellets. Spectra were processed using OPUS 7.8 software (Bruker). NMR Spectroscopy: 1H NMR spectra were recorded on a 11.7 T Bruker DRX-500 spectrometer. Chemical shifts are reported in ppm (o units) downfield from the HOD residual solvent peak (CD3OD). Experiments were recorded acquiring 64-512 scans, with a pre-scan delay (d1) of 12 s, and an acquisition time (aq) of 4 s at 300 K. 13C NMR spectrum was recorder on a 9.39 T Varian Innova 400 spectrometer. MestReNova 14.2 software (Mestrelab Research) was used for spectra processing. Cell culture conditions and treatments: HEK293FT, A431, A2058, Neuro2A, Hepa1-6 and MDA-MB 468 were maintained in 10% FBS-supplemented DMEM medium (PAN-Biotech GmbH, or Lonza Group, Basel, Switzerland)+Pen/Strep at 37° C. with 5% CO2. […] SO1861-EMCH was conjugated into/onto these polyplexes or co-administrated at 966 or 4000 nM to the different cell lines in vitro (as indicated). For this, cells were seeded in a 96 well plate at 5.000-10.000 c/w in 100 μL/well and incubated overnight at 37° C. Before treatment, the mAb-SO1861 and polyplexes were diluted separately in DPBS (PAN-Biotech GmbH) to 10× the required final concentration. The cells received 80 μL/well fresh media, followed by 20 μL/well polyplex solution and 20 μL/well saponin solution. In particular, before K16-polyplex treatments, K16-polyplexes were formulated in 10 mM HEPES, incubated for 30 min at room temperature and then diluted with complete cell culture medium. The complete cell culture medium was exchanged against 100 μL transfection medium. For co-administration of SO1861-EMCH, the transfection medium was supplemented with 2 μg/mL (=966 nM) SO1861-EMCH. Control transfections were performed with Lipofectamine™ 3000 Transfection Reagent (Thermo Fisher Scientific) according to the manufacturer's instruction, using either […] or 100 ng plasmid and with a media change 4-5 hrs after transfection. […] After treatment, the cells were incubated for 72 hr at 37° C. before the cell viability was determined by a MTS-assay performed according to the manufacturer's instruction (CellTiter 96® AQueous One Solution Cell Proliferation Assay, Promega). […]

red blood cells (RBCs) = experiment: Haemolysis assay; format: cell-based, human; details: 2.5-80 μg/mL, 3 h at 37° C.
Description: To get a first estimation of the haemolytic activity of the scaffolds and its potential to induce aggregation of red blood cells, possible disruption of red blood cells was investigated by measuring the release of haemoglobin into the supernatant according to the scheme shown in FIG. 24A. First, the red blood cells (RBCs) were treated with solutions containing PAMAM- or peptide-based scaffolds or polyplexes obtained therewith at different concentrations (2.5-80 μg/mL). The incubation was performed for 3 h at 37° C. RBCs treated with PBS under same conditions were used as a negative control while samples treated with Triton X-100 (10%) were used as a positive control corresponding to conditions of full haemolysis. After centrifugation, the absorbance at 540 nm (OD540) of the supernatants was recorded with a spectrometer. The following equation was used for the calculation of the percentages of haemolysis: […]

[1] = system: extrinsic part of the coagulation cascade; experiment: Prothrombin time in fresh whole blood; details: reference 70-130%
Description: as §1

RBCs = experiment: Erythrocyte aggregation under optical microscope; details: up to 80 μg/mL
Description: as §1

| Compound | partial thromboplastin time (PTT) (intrinsic pathway) | cell killing activity / saporin gene delivery, K16C npSaporin polyplexes (EGFR+ A431 cells) | cell killing activity of K16C npSaporin polyplex (EGFR+ A431 cells; up to about 1000 pM of plasmid, absence of free saponin or targeted saponin, N/P ratio 10) | haemolytic activity (red blood cells (RBCs)) | prothrombin time (PT) ([1]; 0.1 μM) | prothrombin time (PT) ([1]; 0.5 μM) | prothrombin time (PT) ([1]; 1 μM) | prothrombin time (PT) ([1]; 5 μM) | erythrocyte aggregation (RBCs) |
| --- | --- | --- | --- | --- | --- | --- | --- | --- | --- |
| [N-]=[N+]=NCCCC[C@H](NC(=O)[C@H](Cc1ccc(O)cc1)NC(=O)CNC(=O)CNC(=O)[C@H](CS)NC(=O)CNC(=O)CNC(=O)CNC(=O)CNC(=O)[C@H](CCCCN)NC(=O)[C@H](CCCCN)NC(=O)[C@H](CCCCN)NC(=O)[C@H](CCCCN)NC(=O)[C@H](CCCCN)NC(=O)[C@H](CCCCN)NC(=O)[C@H](CCCCN)NC(=O)[C@H](CCCCN)NC(=O)[C@H](CCCCN)NC(=O)[C@H](CCCCN)NC(=O)[C@H](CCCCN)NC(=O)[C@H](CCCCN)NC(=O)[C@H](CCCCN)NC(=O)[C@H](CCCCN)NC(=O)[C@H](CCCCN)NC(=O)[C@@H](N)CCCCN)C(N)=O [K16C, K16G4CGGYK (N3)] (H-KKKKKKKKKKKKKKKKGGGGCGGY[Lys(N3)]-NH2) | 38.5 s | practically no cell killing activity | practically no enhanced cell killing activity | surprisingly low haemolysis degree | 100% | 82% | 61% | 33.5% | did not cause any RBC aggregation |
| K16G4CGGYK (N3)-SO18610.25 [K16C-(SO1861)0.25 eq] |  | the most efficient in saporin gene delivery into the cytoplasm |  |  |  |  |  |  |  |
